The text below walks through data of patent US20090221684A1, “Molecules for Gene Delivery and Gene Therapy, and Methods of Use Thereof” (priority 2005, published 2009).

One data set has as its system GAPDH. The data set can be described thus: siRNA delivery, KDalert GAPDH gene knockdown assay. Format: cell-based. Particulars: 48 hr after siRNA transfection. The procedure:
Trypsine adherent cells and dilute in normal growth medium to 1×10^5 cells per ml. […] Dilute RNA in serum free medium. Mix the diluted RNA with the transfectant reagent, incubate for 10 min at room temperature and dispense into a culture plate. Depending on the experimental design, the ration of lipid, siRNA, pH, and incubation time was varied. Overlay cell suspension onto the transfection mixture. Incubate at 37° C. and 5% CO2. Assay for gene knockdown were assessed after 48 h depending on the experimental protocol.
The gene knockdown assay performed was KDalert™ GAPDH Assay (Ambion) following the manufacturer protocol. Briefly, 48 hr after siRNA transfection, aspirate the culture medium from transfected cells. Add 200 μl KDalert Lysis Buffer to each sample well. Incubate at 4° C. for 20 min to lyse the cells. Pipet the cell lysate up and down 4-5 times to homogenize the lysate. Transfer 10 μl of each lysate or GAPDH Enzyme dilution (including the GAPDH Working Stock) to the wells of a clean 96 well plate. Working quickly, add 90 μl of KDalert Master Mix to each sample using a multi-channel pipettor to dispense the KDalert Master Mix quickly. Measure the increase in fluorescence of the samples at room temp. Using the reagent above we saw greater than 80% knockdown of the protein.

The subject of data set [1] is CHO cells. The data set can be described thus: Cytotoxicity, formazan-based proliferation assay and total protein assay, CHO cells. The following applies: for cytotoxicity (cell proliferation/number as percentage of non-treated cells): 24 hours after addition. The procedure: Cytotocixity experiments were also performed with CHO and L6 cells using a formazan-based proliferation assay and a total protein assay. The cells were seeded onto a 96-multiwell plate with an appropriate density of 1×10^4 cells per well. […] After another 24 hours, cell proliferation/number was determined and expressed as a percentage of non-treated cells.
Cytotoxicity was assessed using both a formazan-based proliferation assay (CellTiter 96 AQueous One Solution Cell Proliferation Assay kit, Promega) and a total protein-based assay (Pierce). Briefly, CHO cells were seeded onto a multi-well microtiter plate with an appropriate density, depending on the size of the well (e.g., 1×10^4 cells per well in a 96-well plate). After 48 h, MTS substrate was added to each well and the plate and incubated for 4 h at 37° C. in a humidified, 5% CO2 incubator. The amount of soluble formazan produced by cellular reduction of the substrates MTS was recorded at 490 nm using a multi-well plate reader. For the total protein-based proliferation assay, cells were lysed at the same time when transfection efficiency was assayed. A 5 μL of lysates were transferred to a separate multi-well plate. Total protein contents were assessed using the Coomassie Blue protein kit (Pierce, Rockford, Ill.) following the manufacturer protocol. Negative and positive controls were non-treated cells and commercial lipids treated cells, respectively. The proliferation results were expressed as percentages of non-treated cells.

Data set [2] has as its system CHO cells. The data set can be described thus: Gene transfection efficiency in a cell population by optical microscopy. Format: cell-based, Chinese hamster. The following applies: reporter gene β-gal. An excerpt: Importantly, more than 70% of the cells had been transfected as compared to less than 40% when using other transfection reagents.
In data set [3] the test system is Chinese hamster ovarian (CHO) cells. Nature of the data set: β-galactosidase reporter gene transfection in CHO cells. Format: cell-based.
Protocol: The reporter gene was first mixed with the lipids in potassium phosphate buffer (PBS) at room temperature. We tested two different lipid/DNA ratios (5:1; and 20:1) while keeping the zwitterionic/DOTAP ratio constant at 1:1. Next, the lipid/DNA complexes were added to the cells. The amount of DNA used was the same as used in the naked DNA control (no lipid), and the negative control was compound 4 without DNA. After incubation at 37° C. and 5% CO2 for 2 h, the medium was removed and fresh growth medium was added. Transfection efficiencies were assessed after 48 h using the β-galactosidase enzyme assay in conjunction with a standard curve. The efficiency of each transfection was calculated as β-gal activity normalized to total protein.
Transfection assays were performed using the well established beta-galactosidase transfection assay. In these experiments the beta-galactosidase gene is transfected into cells. Next, the expressed enzyme then cleaves a chemiluminescent reporter that is detected. […]
Chinese hamster ovarian cells (CHO, ATCC, Manassas, Va.) were cultured in complete F12K media (ATCC) containing 10% fetal calf serum (Sigma) and 1% penicillin and streptomycin (500 IU/ml and 5000 μg/ml, respectively, Mediatech, Herndon, Va.) at 37° C. in 5% CO2 with humidity. […] Transfection efficiencies were assessed 24 h to 48 h post transfection depending on the experimental design. […]
A further data set has as its system calf thymus DNA. Nature of the data set: Ethidium bromide displacement fluorescence assay. Format: binding. The following applies: fluorescence intensity as a function of vector/DNA charge ratio. The procedure: The propensity of the lipids to bind DNA was measured via an ethidium bromide displacement fluorescence assay. This assay entailed measuring the reduction of the fluorescence intensity of the DNA-intercalated ethidium bromide, as this fluorescent probe is displaced by the cationic amphiphile. […] The results obtained with DOTAP, DOTAP/DOPE, and DOPC/DOTAP are consistent with previous reports. A 1:1 assembly is formed between the lipids and DNA.
Binding studies were carried out by competitive displacement fluorimetric assay with DNA-bound ethidium bromide. This assay involves the addition of aliquots of the compound to a 3 mL solution of EthBr (1.3 μM) and calf thymus DNA (3 μM) in buffer (100 mM NaCl, 100 mM Tris, pH 7.4) with the decrease of fluorescence (λexc=546 nm, λem=600 nm; 1 cm path length glass cuvette, slit width 3 nm) recorded after 5 min equilibrium time following each addition.

Data set [4] is described as follows: Liposome average diameter by dynamic light scattering. It is filed as physicochemical. The following applies: extruded through 50 nm membrane, Tris buffer pH 7.4. An excerpt:
(§1) It is likely that 4 will form bilayers. […] After 20 extrusions, a homogeneous liposome solution was observed.

Data set [5] in a line: Transmission electron micrographs (TEM) of vesicles. It is filed as physicochemical.
From the text: as §1

Data set [6] can be described thus: Differential scanning calorimeter (DSC) trace of hydrated amphiphile. It is filed as physicochemical.
Another data set concerns L6 cells. Nature of the data set: Cytotoxicity, formazan-based proliferation assay and total protein assay, L6 cells. It is filed as cell-based. The following applies: 24 hours after addition.

Where two headings read alike, the source gives them in different places.

Protocol for esterase: Next, we prepared vesicles of 4, 4/DOTAP, and DOPC/DOTAP. A chloroform solution containing 4, 4/DOTAP, or DOPC/DOTAP was added to a pear shaped flask and the solution was evaporated under vacuum leaving a thin film deposited onto the flask wall. One mL of Tris buffer (100 mM Tris, 100 mM NaCl, pH 7.4) was then added and the film was peeled off by vortexing. The milky aqueous suspension was extruded through a polycarbonate membrane (50 nm) using an Aventi polar lipids mini-extruder. After 20 extrusions, a homogeneous liposome solution was observed.

In the case of “1,2-Di-tetradecanoyl-3-Lys-Trp-Lys-rac-glycerol”, the “knockdown of the protein” value with GAPDH is recorded as “greater than 80%”. Moreover, the cell cytotoxicity entry with CHO cells [1] (CHO cells, Example 16, MTS and total protein assays) is “minimal cell cytotoxicity”. Besides, the cells transfected result in the data set on CHO cells [2] is on record as “more than 70%”. Also, the transfection capability result in data set [3] (CHO cells, Example 15, β-gal reporter gene) was “high transfection capability”.

With `NCCOP(=O)(O)OCC(COC(=O)CCCCCCCCCCC(=O)OCc1ccccc1)OC(=O)CCCCCCCCCCC(=O)OCc1ccccc1` (racemic) [1,2-Di-dodecanedioyl benzyl ester-3-phosphoethanolamine-rac-glycerol], the cell cytotoxicity entry in the data set with CHO cells [1] is “minimal cell cytotoxicity”.

For `C[N+](C)(C)CCOP(=O)([O-])OCC(COC(=O)CCCCCCCCCCC(=O)OCc1ccccc1)OC(=O)CCCCCCCCCCC(=O)OCc1ccccc1` (racemic) [Compound 4, 1,2-Di-dodecanedioyl benzyl ester-3-phosphocholine-rac-glycerol], the “time to loss of 4” value with esterase was “four”. The “time to complete hydrolysis of 4 to yield 5” value in the data set with esterase (esterase added to liposomes prepared from 4, HPLC) was 8 h. The “cytotoxicity (cell proliferation/number as percentage of non-treated cells)” value in the data set with CHO cells [1] (CHO cells) and in the data set on L6 cells was “None of the amphiphiles showed significant cytotoxicity” each time. In addition, the “displacement of DNA-intercalated ethidium bromide (fluorescence intensity)” value (“displacement” below) in the data set with calf thymus DNA is on record as “do not displace EtBr”. Also, the “average diameter of the liposomes” value in data set [4] was 79 nm. In data set [3] (assessed after 48 h, result in words), the “transfection efficiency (β-gal activity normalized to total protein)” value is given as “does not transfect DNA”. The “average size of vesicular organizations” value in data set [5] was “about 100 nM”. Besides, the phase-transition temperature in [6] was ~44 °C.

Regarding `CCCCCCCC/C=C\CCCCCCCC(=O)OC[C@H](COP(=O)([O-])OCC[N+](C)(C)C)OC(=O)CCCCCCC/C=C\CCCCCCCC` [DOPC, dioleylphosphatidyl choline], the “displacement” value in the data set with calf thymus DNA is recorded as “do not displace EtBr”.

`CCCCCCCC/C=C\CCCCCCCC(=O)OC[C@H](COP(=O)(O)OCCN)OC(=O)CCCCCCC/C=C\CCCCCCCC` [DOPE, dioleylphosphatidyl ethanolamine]: the “displacement” value in the data set on calf thymus DNA is recorded as “do not displace EtBr”.

For `CCCCCCCC/C=C\CCCCCCCC(=O)OCC(C[N+](C)(C)C)OC(=O)CCCCCCC/C=C\CCCCCCCC` (stereo not shown) [DOTAP, 1,2-dioleoyloxy-3-(trimethylammonio)-propane, reference compound], the “cytotoxicity (cell proliferation/number as percentage of non-treated cells)” value in the data set on CHO cells [1] (CHO cells) and in the data set with L6 cells was “None of the amphiphiles showed significant cytotoxicity” throughout. In the data set with calf thymus DNA, the “displacement” value is reported as “fluorescence intensity decreases”.
